Source: US4447453A, “Anti-peptic ulcer agent” (Chugai Seiyaku Kabushiki Kaisha, priority 1980, dated 1984)

System: rats with stress-induced ulcer
Assay: Restraint and water immersion stress ulcer test in rats (Takagi et al.)
Format: in vivo, rat (Sprague-Dawley, male)
Conditions: Rattus norvegicus; Table 2, oral, 50 mg/kg, 16 h immersion
Description: Groups of 7-week-old Sprague-Dawley male rats each consisting of 10 members were starved for 24 hours and administered orally the compounds of the present invention. Ten minutes later, they were confined in a restrainer cage according to the method of Takagi et al. (Japanese Journal of Pharmacology, 18, 9-18, 1968), and the cage was placed vertically in a water tank at 23°-24° C. until the rats were immersed in the water to the depth of the processus xiphoideus. Sixteen hours later, the rats were killed with excess ether and had their stomach removed. Each stomach was incised along the greater curvature after the surface of the gastric mucosa and serous membrane was lightly fixed with 1% formalin. The diameter (mm) of the ulcers developed in each rat was summed and the sum was used as the ulcer index for each rat.
The activity of the compounds of the present invention to cure peptic ulcer was measured as in Example 2.

Row | Compound | inhibition in vivo at 50 mg/kg [%]
1 | Cc1c(Cl)ccc(C(=O)O)c1Nc1ccccc1C(=O)O [Compound 5] | 38.5
2 | O=C(O)c1ccc(Cl)cc1Nc1cc(Cl)ccc1C(=O)O [Compound 3] | 23.3
3 | Cc1ccc(Nc2cc(Cl)ccc2C(=O)O)c(C(=O)O)c1 [Compound 2] | 22.5
4 | Cc1ccc(C(=O)O)c(Nc2ccccc2C(=O)O)c1 [Compound 6] | 34.3

Same assay, conditions: Rattus norvegicus; Table 2, oral, 100 mg/kg, 16 h immersion

Row | Compound | inhibition in vivo at 100 mg/kg [%]
5 | Cc1c(Cl)ccc(C(=O)O)c1Nc1ccccc1C(=O)O [Compound 5] | 88.2
6 | O=C(O)c1ccc(Cl)cc1Nc1cc(Cl)ccc1C(=O)O [Compound 3] | 49.5
7 | Cc1ccc(Nc2cc(Cl)ccc2C(=O)O)c(C(=O)O)c1 [Compound 2] | 89.2
8 | Cc1ccc(C(=O)O)c(Nc2ccccc2C(=O)O)c1 [Compound 6] | 92.9

Same assay, conditions: Rattus norvegicus; Table 2, oral, 200 mg/kg, 16 h immersion

Row | Compound | inhibition in vivo at 200 mg/kg [%]
9 | Cc1c(Cl)ccc(C(=O)O)c1Nc1ccccc1C(=O)O [Compound 5] | 100
10 | O=C(O)c1ccc(Cl)cc1Nc1cc(Cl)ccc1C(=O)O [Compound 3] | 92
11 | Cc1ccc(Nc2cc(Cl)ccc2C(=O)O)c(C(=O)O)c1 [Compound 2] | 100
12 | Cc1ccc(C(=O)O)c(Nc2ccccc2C(=O)O)c1 [Compound 6] | 100

Same assay, conditions: Rattus norvegicus; Table 4, as in Example 2 (oral), 200 mg/kg

Row | Compound | inhibition in vivo at 200 mg/kg [%]
13 | Cc1cc(C)c(C(=O)O)c(Nc2ccccc2C(=O)O)c1 [Compound 11] | 96.9
14 | COc1cc(Nc2ccccc2C(=O)O)c(C(=O)O)cc1OC [Compound 7] | 98.4
15 | Cc1cc(C)c(C(=O)O)c(Nc2cc(Cl)ccc2C(=O)O)c1 [Compound 13] | 70
16 | Cc1cc(Nc2cc(Cl)ccc2C(=O)O)c(C(=O)O)cc1C [Compound 15] | 78.8
17 | Cc1ccc(C(=O)O)c(Nc2ccccc2C(=O)O)c1C [Compound 14] | 90.9
18 | COc1ccc(C(=O)O)c(Nc2cc(Cl)ccc2C(=O)O)c1 [Compound 8] | 96.7
19 | Cc1cc(Nc2ccccc2C(=O)O)c(C(=O)O)cc1C [Compound 10] | 90.1
20 | Cc1ccc(C(=O)O)c(Nc2cc(Cl)ccc2C(=O)O)c1C [Compound 9] | 83.4
21 | Cc1cc(C(=O)O)c(Nc2ccccc2C(=O)O)cc1Cl [Compound 12] | 96.7

Same assay, conditions: Table 2, oral, 50 mg/kg, 16 h immersion

Row | Compound | ulcer index (means ± S.E.) [mm]
22 | Cc1c(Cl)ccc(C(=O)O)c1Nc1ccccc1C(=O)O [Compound 5] | 9.6 ± 4.4
23 | O=C(O)c1ccc(Cl)cc1Nc1cc(Cl)ccc1C(=O)O [Compound 3] | 14.3 ± 3.9
24 | Cc1ccc(Nc2cc(Cl)ccc2C(=O)O)c(C(=O)O)c1 [Compound 2] | 12.0 ± 6.2
25 | Cc1ccc(C(=O)O)c(Nc2ccccc2C(=O)O)c1 [Compound 6] | 12.1 ± 3.5

Same assay, conditions: Table 2, oral, 100 mg/kg, 16 h immersion

Row | Compound | ulcer index (means ± S.E.) [mm]
26 | Cc1c(Cl)ccc(C(=O)O)c1Nc1ccccc1C(=O)O [Compound 5] | 1.8 ± 0.9
27 | O=C(O)c1ccc(Cl)cc1Nc1cc(Cl)ccc1C(=O)O [Compound 3] | 9.4 ± 4.8
28 | Cc1ccc(Nc2cc(Cl)ccc2C(=O)O)c(C(=O)O)c1 [Compound 2] | 1.7 ± 1.2
29 | Cc1ccc(C(=O)O)c(Nc2ccccc2C(=O)O)c1 [Compound 6] | 1.5 ± 1.1

Same assay, conditions: Table 2, oral, 200 mg/kg, 16 h immersion

Row | Compound | ulcer index (means ± S.E.) [mm]
30 | Cc1c(Cl)ccc(C(=O)O)c1Nc1ccccc1C(=O)O [Compound 5] | 0
31 | O=C(O)c1ccc(Cl)cc1Nc1cc(Cl)ccc1C(=O)O [Compound 3] | 1.5 ± 0.8
32 | Cc1ccc(Nc2cc(Cl)ccc2C(=O)O)c(C(=O)O)c1 [Compound 2] | 0
33 | Cc1ccc(C(=O)O)c(Nc2ccccc2C(=O)O)c1 [Compound 6] | 0

Same assay, conditions: Table 4, as in Example 2 (oral), 200 mg/kg

Row | Compound | ulcer index (means ± S.E.) [mm]
34 | Cc1cc(C)c(C(=O)O)c(Nc2ccccc2C(=O)O)c1 [Compound 11] | 1.2 ± 0.9
35 | COc1cc(Nc2ccccc2C(=O)O)c(C(=O)O)cc1OC [Compound 7] | 0.2 ± 0.1
36 | Cc1cc(C)c(C(=O)O)c(Nc2cc(Cl)ccc2C(=O)O)c1 [Compound 13] | 11.6 ± 6.2
37 | Cc1cc(Nc2cc(Cl)ccc2C(=O)O)c(C(=O)O)cc1C [Compound 15] | 8.2 ± 3.2
38 | Cc1ccc(C(=O)O)c(Nc2ccccc2C(=O)O)c1C [Compound 14] | 3.5 ± 1.6
39 | COc1ccc(C(=O)O)c(Nc2cc(Cl)ccc2C(=O)O)c1 [Compound 8] | 1.7 ± 1.3
40 | Cc1cc(Nc2ccccc2C(=O)O)c(C(=O)O)cc1C [Compound 10] | 3.8 ± 1.5
41 | Cc1ccc(C(=O)O)c(Nc2cc(Cl)ccc2C(=O)O)c1C [Compound 9] | 6.5 ± 3.4
42 | Cc1cc(C(=O)O)c(Nc2ccccc2C(=O)O)cc1Cl [Compound 12] | 1.3 ± 0.7

System: ulcers developed in Shay rats
Assay: Pylorus ligation (Shay) ulcer test in rats
Format: in vivo, rat (Sprague-Dawley, male)
Conditions: Table 1, intra-duodenal, 50 mg/kg, 18 h
Description: Groups of 8-week-old Spraque-Dawley male rats each consisting of 10 members were starved for 48 hours, anaethesized with ether and had their pylorus ligated in accordance with the method of Shay et al. (Gasteroenterology, 5, 43-61, 1945). Immediately thereafter, they were administered the compounds of the present invention intra-duodenally or intraperitoneally. Eighteen hours later, they were killed with excess ether and the gastric mucus membrane was removed and observed under a stereoscopic microscope (×10). The diameter (mm) of the ulcers developed in each rat was summed and the sum was used as the ulcer index of each rat.
The activity of the compounds of the present invention to cure peptic ulcer was measured as in Example 1. The test compound was administered in the duodenum.

Row | Compound | inhibition [%] | ulcer index (means ± S.E.) [mm]
43 | Cc1c(Cl)ccc(C(=O)O)c1Nc1ccccc1C(=O)O [Compound 5] | 67.1 | 1.3 ± 0.6
44 | O=C(O)c1ccc(Cl)cc1Nc1cc(Cl)ccc1C(=O)O [Compound 3] | 33.7 | 2.3 ± 0.7
45 | Cc1ccc(Nc2cc(Cl)ccc2C(=O)O)c(C(=O)O)c1 [Compound 2] | 87.8 | 0.5 ± 0.3
46 | Cc1ccc(C(=O)O)c(Nc2ccccc2C(=O)O)c1 [Compound 6] | 58.6 | 1.4 ± 0.7

Same assay, conditions: Table 1, intra-duodenal, 100 mg/kg, 18 h

Row | Compound | inhibition [%] | ulcer index (means ± S.E.) [mm]
47 | Cc1c(Cl)ccc(C(=O)O)c1Nc1ccccc1C(=O)O [Compound 5] | 96.6 | 0.1 ± 0.1
48 | O=C(O)c1ccc(Cl)cc1Nc1cc(Cl)ccc1C(=O)O [Compound 3] | 78.0 | 0.9 ± 0.6
49 | Cc1ccc(Nc2cc(Cl)ccc2C(=O)O)c(C(=O)O)c1 [Compound 2] | 92.7 | 0.3 ± 0.3
50 | Cc1ccc(C(=O)O)c(Nc2ccccc2C(=O)O)c1 [Compound 6] | 92.5 | 0.3 ± 0.3

Same assay, conditions: Table 1, intra-duodenal, 200 mg/kg, 18 h

Row | Compound | inhibition [%] | ulcer index (means ± S.E.) [mm]
51 | Cc1c(Cl)ccc(C(=O)O)c1Nc1ccccc1C(=O)O [Compound 5] | 100 | 0
52 | O=C(O)c1ccc(Cl)cc1Nc1cc(Cl)ccc1C(=O)O [Compound 3] | 100 | 0
53 | Cc1ccc(Nc2cc(Cl)ccc2C(=O)O)c(C(=O)O)c1 [Compound 2] | 100 | 0
54 | Cc1ccc(C(=O)O)c(Nc2ccccc2C(=O)O)c1 [Compound 6] | 100 | 0

Same assay, conditions: Table 1, intra-peritoneal, 50 mg/kg, 18 h

Row | Compound | inhibition [%] | ulcer index (means ± S.E.) [mm]
55 | Cc1c(Cl)ccc(C(=O)O)c1Nc1ccccc1C(=O)O [Compound 5] | 100 | 0
56 | O=C(O)c1ccc(Cl)cc1Nc1cc(Cl)ccc1C(=O)O [Compound 3] | 95.7 | 0.3 ± 0.3
57 | Cc1ccc(Nc2cc(Cl)ccc2C(=O)O)c(C(=O)O)c1 [Compound 2] | 80.7 | 0.8 ± 0.4
58 | Cc1ccc(C(=O)O)c(Nc2ccccc2C(=O)O)c1 [Compound 6] | 48.6 | 2.0 ± 0.7

Same assay, conditions: Table 3, administered in the duodenum, 100 mg/kg

Row | Compound | inhibition [%] | ulcer index (means ± S.E.) [mm]
59 | Cc1cc(C)c(C(=O)O)c(Nc2ccccc2C(=O)O)c1 [Compound 11] | 60.0 | 1.4 ± 0.6
60 | Cc1cc(C)c(C(=O)O)c(Nc2cc(Cl)ccc2C(=O)O)c1 [Compound 13] | 50.0 | 1.0 ± 0.7
61 | Cc1ccc(C(=O)O)c(Nc2ccccc2C(=O)O)c1C [Compound 14] | 78.5 | 0.4 ± 0.4
62 | COc1ccc(C(=O)O)c(Nc2cc(Cl)ccc2C(=O)O)c1 [Compound 8] | 100.0 | 0 ± 0
63 | Cc1cc(Nc2ccccc2C(=O)O)c(C(=O)O)cc1C [Compound 10] | 100.0 | 0 ± 0
64 | Cc1ccc(C(=O)O)c(Nc2cc(Cl)ccc2C(=O)O)c1C [Compound 9] | 80.1 | 0.7 ± 0.7
65 | Cc1cc(C(=O)O)c(Nc2ccccc2C(=O)O)cc1Cl [Compound 12] | 91.8 | 0.3 ± 0.3

System: not listed separately
Assay: Acute oral toxicity (LD50) in ddY mice
Conditions: mouse, in vivo, male ddY mice, suspension in 2% aqueous gum arabic
Description: The compounds listed above have very low toxicity, and the first six compounds have following the LD50 values when they are administered orally to ddY strain male mice (5 weeks old and weighing from 26-30 g) in the form of a suspension in a 2% aqueous gum arabic: […]

Row | Compound | LD50 [mg/kg]
66 | Cc1c(Cl)ccc(C(=O)O)c1Nc1ccccc1C(=O)O [Compound 5] | 1250
67 | Cc1ccc(C)c(C(=O)O)c1Nc1cc(Cl)ccc1C(=O)O [Compound 4] | 3000
68 | O=C(O)c1ccccc1Nc1cc(Cl)ccc1C(=O)O [Compound 1] | 2100
69 | O=C(O)c1ccc(Cl)cc1Nc1cc(Cl)ccc1C(=O)O [Compound 3] | > 2000
70 | Cc1ccc(Nc2cc(Cl)ccc2C(=O)O)c(C(=O)O)c1 [Compound 2] | > 1500
71 | Cc1ccc(C(=O)O)c(Nc2ccccc2C(=O)O)c1 [Compound 6] | > 2000
